Data set [1] is described as follows: Inhibition of AgrC-1 in Staphylococcus aureus RN9222 incubated for 60 to 90 mins in presence of AIP agonist by beta-lactamase reporter gene assay.
Data set [2] can be described thus: Inhibition of AgrC-1 in Staphylococcus aureus AH1677 incubated for 24 hrs by fluorescence assay.
A short description of data set [3]: Drug degradation in ammonium carbonate solution 0.3 mg after 8 hrs after RP-HPLC analysis. The settings on record: read-out: Drug degradation. In kind it is physicochemical.
The nature of data set [4]: Inhibition of AgrC-2 in Staphylococcus aureus RN9372 incubated for 60 to 90 mins in presence of AIP agonist by beta-lactamase reporter gene assay. For orientation: Reporter assays use an easily measured gene product as a stand-in for the process of interest.
In data set [5] the test system is Staphylococcus aureus. Briefly: Agonist activity at AgrC-3 in Staphylococcus aureus incubated for 60 to 90 mins by beta-lactamase reporter gene assay.
Data set [6] is described as follows: Agonist activity at AgrC-4 in Staphylococcus aureus RN9371 incubated for 60 to 90 mins in presence of AIP agonist by beta-lactamase reporter gene assay.
For data set [7], the system named is Staphylococcus aureus. Briefly: Antibacterial activity against methicillin-resistant Staphylococcus aureus USA300 infected in CD-1 mouse MRSA sepsis model assessed as survival rate at 30 mg/kg, ip after 144 hrs (reference value: 70%). In kind it is functional.
In data set [8] the target is T1, Receptor-histidine kinase AgrC (Staphylococcus aureus, UniProt O07911).
T1 sequence (O07911 whole entry): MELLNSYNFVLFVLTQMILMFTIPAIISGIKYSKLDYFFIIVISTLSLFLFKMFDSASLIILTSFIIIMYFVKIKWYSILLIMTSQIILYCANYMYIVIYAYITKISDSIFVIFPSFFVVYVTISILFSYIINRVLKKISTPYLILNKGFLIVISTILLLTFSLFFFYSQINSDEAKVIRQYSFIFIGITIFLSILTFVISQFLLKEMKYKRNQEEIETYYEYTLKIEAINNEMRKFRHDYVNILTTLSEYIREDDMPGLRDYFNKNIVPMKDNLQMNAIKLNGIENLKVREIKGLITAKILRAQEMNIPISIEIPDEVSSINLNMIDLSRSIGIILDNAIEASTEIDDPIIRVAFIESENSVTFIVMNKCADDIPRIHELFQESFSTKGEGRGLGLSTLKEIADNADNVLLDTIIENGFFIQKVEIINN
Briefly: Inhibition of AgrC in mid-exponential phase Staphylococcus aureus RN6390B assessed as beta-lactamase activity incubated for 80 mins by spectrophotometric method.

In data set [9] the target is T1, Receptor-histidine kinase AgrC. Briefly: Inhibition of AgrC in mid-exponential phase Staphylococcus aureus RN8463 assessed as beta-lactamase activity incubated for 80 mins by spectrophotometric method.
Data set [10] is described as follows: Agonist activity at AgrC-3 in Staphylococcus aureus incubated for 60 to 90 mins in presence of AIP agonist by beta-lactamase reporter gene assay.
Data set [11] concerns Staphylococcus aureus. Briefly: Agonist activity at AgrC-2 in Staphylococcus aureus RN9372 incubated for 60 to 90 mins by beta-lactamase reporter gene assay.
For data set [12], the target named is T2, Receptor-histidine kinase AgrC (Staphylococcus aureus) (UniProt O07911).
T2 sequence (whole entry): T1 sequence (O07911 whole entry)
In words: Activation of AgrC in early exponential phase Staphylococcus aureus SA502A assessed as beta-lactamase activity incubated for 55 mins by spectrophotometric method.

Data set [13] can be described thus: Inhibition of AgrC-1 Staphylococcus aureus RN10829 incubated for 45 mins by beta-lactamase reporter gene assay.
A short description of data set [14]: Drug degradation in ammonium carbonate solution 0.3 mg after 24 hrs after RP-HPLC analysis. In kind it is physicochemical. The note with it: read-out: Drug degradation.
The nature of data set [15]: Inhibition of AgrC-3 in Staphylococcus aureus AH1747 incubated for 24 hrs by fluorescence assay.
A short description of data set [16]: Inhibition of AgrC-2 in Staphylococcus aureus AH430 incubated for 24 hrs by fluorescence assay.
Data set [17] is described as follows: Inhibition of AgrC-4 in Staphylococcus aureus AH1872 incubated for 24 hrs by fluorescence assay.
A short description of data set [18]: Drug degradation in ammonium carbonate solution 0.3 mg after 72 hrs after RP-HPLC analysis. The settings on record: read-out: Drug degradation. Type of data set: physicochemical.
Data set [19] addresses T2, Receptor-histidine kinase AgrC (Staphylococcus aureus). In words: Activation of AgrC in early exponential phase Staphylococcus aureus RN6390B assessed as beta-lactamase activity incubated for 55 mins by spectrophotometric method.
Data set [20] deals with Staphylococcus aureus. Briefly: Agonist activity at AgrC-1 in Staphylococcus aureus RN9222 incubated for 60 to 90 mins by beta-lactamase reporter gene assay.
Data set [21] deals with T1, Receptor-histidine kinase AgrC. In words: Inhibition of AgrC in mid-exponential phase Staphylococcus aureus SA502A assessed as beta-lactamase activity incubated for 80 mins by spectrophotometric method.
The subject of data set [22] is Staphylococcus aureus. Briefly: Agonist activity at AgrC-4 in Staphylococcus aureus RN9371 incubated for 60 to 90 mins by beta-lactamase reporter gene assay.
In data set [23] the test system is Staphylococcus aureus. Briefly: Inhibition of AIP biosynthesis in methicillin-resistant Staphylococcus aureus USA300 incubated for 16 hrs by LC-MS analysis. The note with it: USA300, 16 h. Type of data set: functional, organism-based.
Data set [24] has as its system Staphylococcus aureus. In words: Antibacterial activity against methicillin-resistant Staphylococcus aureus infected in BALB/c mouse assessed as reduction in skin ulcer formation at 5 ug, id after 4 days relative to control. In kind it is functional. Details: scale not given: the % may be the effect or the level left.
Data set [25] deals with Staphylococcus aureus. Briefly: Antibacterial activity against methicillin-resistant Staphylococcus aureus infected in BALB/c mouse assessed as reduction in skin ulcer formation at 25 ug, id after 4 days relative to control. In kind it is functional. The arrangement: scale not given: the % may be the effect or the level left.
A short description of data set [26]: Activation of AgrC-1 Staphylococcus epidermidis AH3408 incubated for 24 hrs by fluorescence assay.

Where a SMILES comes first, the peptide text is derived from it. Bridges are numbered along the chain shown (N, C = ends). [ ]: non-standard residue; d: D form. Dap = NC[C@H](N)C(=O)O

For orientation: IC50 means the midpoint of a concentration-inhibition curve. With `CC[C@H](C)[C@H](N)C(=O)N[C@@H](CC(N)=O)C(=O)N[C@H]1CSC(=O)[C@H](CC(C)C)NC(=O)[C@H](CC(C)C)NC(=O)[C@H](Cc2ccccc2)NC(=O)[C@H](CC(=O)O)NC1=O` (H-INCDFLL; thioester 3-C), the IC50 in [1] stood at 70 nM; in data set [2], 5.05 nM; in data set [4], 6 nM; in data set [6], 150 nM. Besides, the degraded at 8 h in [3] came out at 100%. In the data set on Staphylococcus aureus [5], this compound returned an ED50 of 26 nM.

Consider `CCCCCCc1cc(C(=O)COc2ccc(C(C)C)cc2)c(O)cc1O`, for which, in the data set with Staphylococcus aureus [7], the survival at 30 mg/kg amounted to 100%.

With `CC(C)C[C@@H]1NC(=O)[C@H](CO)NC(=O)[C@H](CO)NC(=O)[C@@H](NC(=O)[C@H](C)NC(=O)[C@H](CC(N)=O)NC(=O)[C@@H](NC(=O)CN)C(C)C)CSC(=O)[C@H](Cc2ccccc2)NC1=O` (H-GVNACSSLF; thioester 5-C), the IC50 was 2.9 nM in data set [8]; 40 nM in data set [1]; 3.2 nM in data set [9]; 1 nM in data set [10]; 12 nM in data set [13]; 86 nM in data set [6]. Further, the ED50 was 30 nM in the data set with Staphylococcus aureus [11] and 3.6 nM in data set [12].

For the compound `CC[C@H](C)[C@H](N)C(=O)N[C@@H](CC(N)=O)C(=O)N[C@H]1CNC(=O)[C@H](CC(C)C)NC(=O)[C@H](CC(C)C)NC(=O)[C@H](Cc2ccccc2)NC(=O)[C@H](C)NC1=O` (H-IN[Dap]AFLL; lactam 3-C), the degraded at 24 h in [14] is 10%. For the same compound, the IC50 was determined as 1.2 nM in data set [2], 0.0551 nM in data set [15], 2.19 nM in data set [16] and 0.192 nM in [17]. For the same compound, in data set [18], the degraded at 72 h amounted to 40%.

As for `CC[C@H](C)[C@@H]1NC(=O)[C@H](Cc2ccccc2)NC(=O)[C@H](CC(=O)O)NC(=O)[C@@H](NC(=O)[C@@H](NC(=O)[C@H](CO)NC(=O)[C@@H](N)Cc2ccc(O)cc2)[C@@H](C)O)CSC(=O)[C@H](CCSC)NC1=O` (H-YSTCDFIM; thioester 4-C), the ED50 in data set [19] worked out at 10.2 nM; in the data set on Staphylococcus aureus [20], 28 nM; with Staphylococcus aureus [22], 26000 nM. Also, the half-maximal inhibitory concentration (IC50) in data set [9] stood at 3.1 nM; in data set [21], 3.4 nM; in data set [10] it was 3 nM; in data set [4] it was 25 nM.

Compound `CCCCC/C=C/C1=C(CO)[C@@H](O)[C@H]2O[C@@]2(C/C=C(\C)C(=O)O)C1=O` gave an IC50 in the data set with Staphylococcus aureus [23] of 2500 nM. Further, the Activity worked out at 50% in the data set with Staphylococcus aureus [24] and 100% with Staphylococcus aureus [25].

For orientation: EC50 means the concentration giving half of the maximal effect. On to `CC(C)[C@H](NC(=O)[C@H](CO)NC(=O)[C@H](C)N)C(=O)N[C@H]1CSC(=O)[C@H](Cc2ccccc2)NC(=O)[C@H](Cc2ccc(O)cc2)NC(=O)[C@H](C)NC(=O)[C@H](C)NC1=O` (H-ASVCAAYF; thioester 4-C), for which the EC50 in data set [26] was 10.3 nM.

The values above are taken from ChEMBL document CHEMBL4402540, “Structure-Activity Relationship Studies of Small Molecule Modulators of the Staphylococcal Accessory Gene Regulator” (J Med Chem, 2020).
